Here are results for two compounds from patent US4317823A, “Pyrazolobenzodiazepinones, their intermediates, their compositions and their use” (Byk Gulden Lomberg Chemische Fabrik GmbH, priority 1979, dated 1982).

In one data set the test system is Shay rats. The data set is described as follows: Anti-ulcerogenic action (protective action on the stomach), Shay rats: pylorus ligature plus oral acetylsalicylic acid, ulcer index. In kind it is in vivo. The settings on record: for TQ LD50/ED50 (therapeutic quotient): LD50 i.v. mice / ED50 p.o. rats; for ED50: Rattus norvegicus, Shay rats, oral 1 hour before pylorus ligature, dose which reduces the ulcer index by 50% compared with the control group, read-out: Protective action on the stomach ED50 administered perorally to rats; for dose dependence of the anti-ulcerogenic action (dose/action curve): Shay model. The protocol:
ED50 = the dose which reduces the ulcer index for the group treated
by 50% compared with the control group
The anti-ulcerogenic action is tested by a method using the so-called Shay rats:
(§1) Ulcers are provoked in rats which have been starved for 24 hours (female rats, 180 to 200 g, 4 animals in a cage with a high grille) by means of a pylorus ligature (under anaesthesia with diethyl ether) and oral administration of 100 mg/10 ml/kg of acetylsalicylic acid. The substances to be tested are administered orally (10 ml/kg) 1 hour before the pylorus ligature. The closure of the wound is effected by means of Michel's clips. The animals are killed 4 hours afterwards under ether anaesthesia by dislocating the atlas, and the stomach is cut out. The stomach is opened longitudinally and is fixed on a cork slab, the quantity of gastric juice secreted (volume) having been determined beforehand; the number and size (=diameter) of ulcers present are determined by means of a stereomicroscope at a 10-fold magnification. The product of the degree of severity (in accordance with the following rating scale) and the number of the ulcers is used as an individual ulcer index.
ulcer diameter 0.1-1.4 mm 1
The reduction in the average ulcer index in each group treated compared with that of the control group (=100%) is used as a measure of the anti-ulcerogenic effect. The ED50 indicates the dose which reduces the average ulcer index by 50%.

The subject of the next data set is stomach secretion. Briefly: Inhibition of stomach secretion (gastric juice volume) in rats. The format is in vivo, rat. The settings on record: 4 hours after administration of the antiulcerogenic ED50. The protocol: *% inhibition = inhibition (in %) of stomach secretion 4 hours after
administration of the antiulcerogenic ED50
as §1

The nature of data set [1]: Determination of toxicity, intravenous LD50 in mice. Conditions: mouse, in vivo, female NMRI mice, 7 days observation, 5 animals per dose, read-out: Toxicity LD50 administered intravenously to mice. The protocol: LD50 = the dose at which 50% of the animals die
The toxicity investigations are carried out on female NMRI mice (body weight 22 to 26 g). The animals (5 animals per dose) receive feed and water ad lib. Various doses of the substances are administered intravenously (duration of injection 1 minute). The observation period is 7 days. The LD50 (the dose at which 50% of the animals die) is determined by means of a linear regression.

Turning to `CC1(C)[C@@H](OC(=O)CCC(=O)O)CC[C@]2(C)[C@H]3C(=O)C=C4[C@@H]5C[C@@](C)(C(=O)O)CC[C@]5(C)CC[C@@]4(C)[C@]3(C)CC[C@@H]12` [Compound 1, carbenoxolone, reference compound], in the data set on Shay rats, the “TQ LD50/ED50 (therapeutic quotient)” value was 4.1 and the ED50 is around 70 mg/kg. In addition, the “increase in the anti-ulcerogenic action above the ED50” value in the data set with Shay rats (even at 300 mg/kg) is on record as “not possible to achieve any substantial increase in the anti-ulcerogenic action”. Besides, the “dose dependence of the anti-ulcerogenic action (dose/action curve)” value in the data set on Shay rats (rats) was “flattens out very considerably”. In the data set on stomach secretion, the “% inhibition of stomach secretion in rats” value is recorded as 7%.

For `Cc1nn(C)c2c1N(C(=O)CN1CCN(C)CC1)c1ccccc1NC2=O` [Compound 2, 1,3-dimethyl-4-[(4-methylpiperazin-1-yl)acetyl]-1,4,9,10-tetrahydropyrazolo[4,3-b][1,5]benzodiazepin-10-one], in the data set on Shay rats, the “TQ LD50/ED50 (therapeutic quotient)” value is on record as 84.0 and the 50% effective dose (ED50) stood at 2.5 mg/kg. The “inhibitory effect (anti-ulcerogenic action)” value in the data set on Shay rats (rats, 30 mg/kg) is “up to 95%”. The “dose dependence of the anti-ulcerogenic action (dose/action curve)” value in the data set with Shay rats (rats) is recorded as “depends strictly on the dose”. Moreover, the “% inhibition of stomach secretion in rats” value in the data set on stomach secretion came out at 20%. Further, the LD50 at 168 h in data set [1] was 210 mg/kg.

Broadly, the ED50 is the dose that gives a 50% effect, or the effect in half of the subjects. As a reminder, the LD50 is the dose at which mortality reaches 50%.
